BindingDB's records for doi:10.1021/jm960573f (University of Washington, 1997)
Where “and” joins values, the source holds several entries; their conditions need not be identical. Identical values can stand only once.

Test: Binding affinity was determined in a crude membrane preparation from guinea pig brain by displacement of [3H]DPDPE from Opioid receptor delta 1

O=C1C(=Cc2c3ccccc3cc3ccccc23)C[C@@]2(O)[C@H]3Cc4ccc(O)c5c4C2(CCN3CC2CC2)[C@H]1O5
Ki: 2.4 nM and 17 nM

O=C1C(=Cc2ccc(-c3ccccc3)cc2)C[C@@]2(O)[C@H]3Cc4ccc(O)c5c4C2(CCN3CC2CC2)[C@H]1O5
Ki: 75 nM and 47 nM

O=C1/C(=C\c2ccccc2)C[C@@]2(O)[C@H]3Cc4ccc(O)c5c4[C@@]2(CCN3CC2CC2)[C@H]1O5
Ki: 3.7 nM

O=C1C(=Cc2cccc3ccccc23)C[C@@]2(O)[C@H]3Cc4ccc(O)c5c4C2(CCN3CC2CC2)[C@H]1O5 [4-cyclopropylmethyl-10,17-dihydroxy-15-[1-(1-naphthyl)-(Z)-methylidene]-(5R,13R,17S)-12-oxa-4-azapentacyclo[9.6.1.01,13.05,17.07,18]octadeca-7(18),8,10-trien-14-one]
Ki: 4.6 nM and 0.7 nM

O=C1C(=Cc2ccc3ccccc3c2)C[C@@]2(O)[C@H]3Cc4ccc(O)c5c4C2(CCN3CC2CC2)[C@H]1O5 [4-cyclopropylmethyl-10,17-dihydroxy-15-[1-(2-naphthyl)-(E)-methylidene]-(5R,13R,17S)-12-oxa-4-azapentacyclo[9.6.1.01,13.05,17.07,18]octadeca-7(18),8,10-trien-14-one]
Ki: 39 nM

O=C1/C(=C/c2ccccc2)C[C@@]2(O)[C@H]3Cc4ccc(O)c5c4[C@@]2(CCN3CC2CC2)[C@H]1O5 [7-Benzylidenenaltrexone]
Ki: 6.2 nM
